Data taken from patent publication US12642794B2, “Dose regimens for use of LY3154207 in the treatment of dopaminergic CNS disorders” (Eli Lilly and Company, priority 2018, dated 2026).
“Also recorded” adds a separate entry of the source. Where two headings read alike, the source gives them in different places.

Assays:
Type in all cases: in vivo, human
healthy subjects = experiment: HBEC Part A multiple ascending dose study: TEAEs, vital signs, tolerability
Experimental: FIG. 3: Design of the study HBEC, a multiple ascending dose study of LY3154207, a randomized, double-blind, placebo-controlled, multiple ascending dose, parallel-group study, of healthy subjects (Part A) and participants with PD (Part B) who received once-daily doses of LY3154207 (15, 30, 75, or 150 mg in Part A and up to 75 mg in Part B) or placebo for 14 days. aEach ascending dose cohort commenced only after review of the safety data to at least Day 7 from the previous cohort. bParticipants with PD in Cohort 6 received titrated doses to determine the effect of this dosing schedule (i.e., Days 1-3:15 mg: Days 4-6:30 mg; and Days 7-14:75 mg) on cardiovascular effects. Note: All cohorts were dosed for 14 days. CRU=clinical research unit: LY=LY3154207; PBO=placebo: PD=Parkinson's disease: R=randomized.
(§1) In this randomized, double-blind, placebo-controlled, multiple ascending dose, parallel-group study, HBEC, healthy subjects (Part A) and participants with PD (Part B) received once-daily doses of LY3154207 (15, 30, 75, or 150 mg in Part A and up to 75 mg in Part B) or placebo for 14 days, as illustrated in FIG. 3.
(§2) Study outcomes included 24-hour ambulatory blood pressure monitoring (ABPM), treatment-emergent adverse events (TEAEs), and PK assessments in both healthy subjects and participants with PD, as well as Movement Disorder Society-United Parkinson's Disease Rating Scale (MDS-UPDRS) assessments to evaluate the impact of LY3154207 on motor function in participants with PD. The objective was to explore the safety, tolerability, and pharmacokinetics (PK) of multiple oral daily dosing of LY3154207 in healthy subjects (Part A) and in participants with PD (Part B).

[1] = HBEC Part B pharmacokinetics, participants with PD; conditions: for Cmax / AUC(0-t) / Tmax: human, oral, 75 mg; for AUC(0-t): read-out: AUC(0-24); for Tmax: read-out: tmax, median
Experimental: as §1, §2

healthy volunteers = experiment: HBEC cognition tests: Digit Symbol Substitution Test (DSST), Hopkins Verbal Learning Test (HVLT); conditions: 15 mg
[2] = test system: sleep-deprived healthy male subjects; experiment: HBEB sleep latency study: multiple sleep latency test (MSLT), Karolinska Sleepiness Scale; conditions: for effect on wakefulness / sleep latency: single doses 15 mg to 75 mg
Description: FIG. 2: HBEB, a Phase 1, single-dose, randomized, placebo-controlled, 4-period, incomplete crossover study in sleep-deprived healthy male subjects (n=17). Effects of a single dose of LY3154207 on wakefulness as measured by the multiple sleep latency test (MSLT) in sleep deprived healthy male subjects. Sleep latency is time from start of MSLT to first detection of sleep (minutes). […] CI=confidence interval: LS-least squares: MSLT=multiple sleep latency test.
Dose dependent activating adverse events were also observed in a single ascending dose study. To determine the effects of a single dose of LY3154207 was studied on wakefulness as measured by the multiple sleep latency test (MSLT) in sleep deprived healthy male subjects. HBEB was a Phase 1, single-dose, randomized, placebo-controlled, 4-period, incomplete crossover study in sleep-deprived healthy male subjects (n=17). Subjects were randomized to receive a single dose of either placebo, LY3154207 15, 30, or 75 mg (double-blind), or modafinil (open-label control). In each period, subjects were sleep deprived for approximately 26 hours before dosing and approximately 12 hours post-dose. MSLT was conducted every 2 hours until 10 hours post-dose. Analysis based on mixed-model repeated measures included treatment, period, time, and the treatment-by-time interaction as fixed effects, and subject as a random effect: overall sleep latency was the average of the 4 post-dose sleep latencies. All subjects are randomized to receive 4 out of 5 available single dose treatments (15, 30, 75 mg LY3154207, placebo or modafanil 200 mg) with all subjects receiving placebo. The washout period is at least 7 days. MSLT is the primary assessment of wakefulness. Secondary outcomes include the Karolinska Sleepiness Scale (KSS), EEG and a simple reaction performance task. Blood samples are collected to measure plasma concentrations of LY3154207 and modafinil. Seventeen subjects are enrolled and received at least one dose of study drug with sixteen subjects completing all 4 periods of the trial. A dose dependent increase in MSLT is observed with least square means (95% CI) difference compared to placebo of 5.2 minutes (3.3,7.1) for 75 mg, 3.2 minutes (1.4, 5.1) for 30 mg, 1.3 minutes (−0.6, 3.2) for 15 mg, as shown in FIG. 2. […] PK is linear with a Cmax and t1/2 of approximately 3 and 9 hours across the dose range.

[3] = healthy subjects, LY 15 mg once daily for 14 days (N = 9)
[4] = healthy subjects, LY 30 mg once daily for 14 days (N = 9)
[5] = healthy subjects, LY 75 mg once daily for 14 days (N = 9)
[6] = healthy subjects, LY 150 mg once daily for 14 days (N = 9)
[7] = healthy subjects, primarily at the 150 mg dose
[8] = in vivo, participants with PD, Day 14, LY 75 mg (N = 8), geometric mean
[9] = in vivo, participants with PD, Day 14, LY 75 mg Titration (N = 8), geometric mean
[10] = participants with PD, LY 75 mg (N = 8), geometric mean

increase in AUC (0-24) in participants with PD versus healthy subjects ([1]; Day 14 after 75 mg): 42%
increase in Cmax in participants with PD versus healthy subjects ([1]; Day 14 after 75 mg): 25%
Cmax [1, 8]: 335 ng/mL
AUC(0-t) [1, 8]: 3050 ng·h/mL
Tmax ([1]; in vivo, participants with PD, Day 14, LY 75 mg (N = 8)): 2 h
Cmax [1, 9]: 400 ng/mL
AUC(0-t) [1, 9]: 3680 ng·h/mL
Tmax ([1]; in vivo, participants with PD, Day 14, LY 75 mg Titration (N = 8)): 2.5 h
exposure in participants with PD compared with healthy subjects ([1]; in vivo): slight increase
accumulation upon repeated dosing ([1]; participants with PD): minimal accumulation
CLss/F ([1]; participants with PD, Day 14, LY 75 mg (N = 8), geometric mean): 24.6 L/h
CLss/F ([1]; participants with PD, Day 14, LY 75 mg Titration (N = 8), geometric mean): 20.4 L/h
RAAUC(0-24) (accumulation ratio Day 14:Day 1) [1, 10]: 1.06
RACmax (accumulation ratio Day 14:Day 1) [1, 10]: 1.05
SMILES: C[C@H]1c2cccc(CCC(C)(C)O)c2C[C@H](CO)N1C(=O)Cc1c(Cl)cccc1Cl [LY3154207]
incidence of TEAEs following multiple dosing (healthy subjects; healthy subjects): dose-dependent increase
severe or serious TEAEs (healthy subjects; healthy subjects): no severe or serious TEAEs
Number of TEAEs (healthy subjects; [3]): 6
Number of TEAEs, Mild (healthy subjects; [3]): 6
Number of TEAEs, Moderate (healthy subjects; [3]): 0
Subjects with ≥1 TEAE, (%) (healthy subjects; [3]): (44.4) %
Number of TEAEs (healthy subjects; [4]): 5
Number of TEAEs, Mild (healthy subjects; [4]): 5
Number of TEAEs, Moderate (healthy subjects; [4]): 0
Subjects with ≥1 TEAE, (%) (healthy subjects; [4]): (55.6) %
Number of TEAEs (healthy subjects; [5]): 6
Number of TEAEs, Mild (healthy subjects; [5]): 6
Number of TEAEs, Moderate (healthy subjects; [5]): 0
Subjects with ≥1 TEAE, (%) (healthy subjects; [5]): (33.3) %
Number of TEAEs (healthy subjects; [6]): 35
Number of TEAEs, Mild (healthy subjects; [6]): 35
Number of TEAEs, Moderate (healthy subjects; [6]): 0
Subjects with ≥1 TEAE, (%) (healthy subjects; [6]): (88.9) %
dizziness, treatment-related AE (healthy subjects; [7]): 3 n
insomnia, treatment-related AE (healthy subjects; [7]): 4 n
nausea, treatment-related AE (healthy subjects; [7]): 2 n
nervousness, treatment-related AE (healthy subjects; [7]): 3 n
palpitations, treatment-related AE (healthy subjects; [7]): 3 n
course of the initial increase in SBP, DBP, and pulse rate (healthy subjects; healthy subjects, repeated dosing): showed accommodation with repeated dosing
tolerability of multiple once-daily doses (healthy subjects; up to 150 mg in healthy subjects): well tolerated
Hopkins Verbal Learning Test (HVLT), improvement from baseline relative to other arms (healthy volunteers): largest average improvement from baseline
Digit Symbol Substitution Test (DSST), change from baseline relative to other arms (healthy volunteers; both post dose time points): highest average change from baseline; also recorded: trend for better cognitive effects
MSLT sleep latency, least square means difference compared to placebo ([2]; single dose 15 mg): 1.3 min
MSLT sleep latency, least square means difference compared to placebo ([2]; single dose 30 mg): 3.2 min
MSLT sleep latency, least square means difference compared to placebo ([2]; single dose 75 mg): 5.2 min
effect on wakefulness / sleep latency [2]: improves wakefulness in a dose dependent manner; also recorded: linear and dose-dependent effect on sleep latency
effect on wakefulness / sleep latency ([2]; listed as LY3144207): increases wakefulness
alertness measured by the Karolinska sleepiness scale ([2]; single doses 15, 30, 75 mg): dose-dependent increase in alertness
